Experimental data from patent US20170095512A1, “METHODS OF INDUCING MYELINATION AND MATURATION OF OLIGODENDROCYTES” (KADIMASTEM LTD., priority 2014, published 2017).
“Also recorded” adds a separate entry of the source.

Tests used:
[1] = test system: hPSC derived oligodendrocytes co-cultured with rodent dorsal root ganglia neurons (MBP+ cells); test: Co-culture myelination assay (human oligodendrocytes with DRG neurons), MBP staining; type: cell-based
Protocol: ArrayScan VTI HCS reader system (Cellomis, Thermo-scientific) was used for scanning at least 20 fields for each tested well under 10× objective in both assays (differentiation and myelination). Cellomics Neural profiling bio-application was used for processing and analyzing the images. For differentiation assay, the following parameters were tested: number and percentage of O4+ cells, number of processes, processes length and number of branching points. For myelination assay, the same morphological parameters were tested and in addition: areas of myelinated axons in pixels (MBP&NF overlap area) and Number of myelinated regions (MBP&NF overlap count) were also analyzed. Modifications in the Neuro-profiling bio-application were conducted for this specific purpose. T-test analysis was used to compare between treatments. The 4-parameter Hill-Slope curve fittings were generated by GraphPad Prism software using least squares fitting method and EC50 values were calculated.
DRG dissociated cells from mouse embryonic day 13 (E13) or rat embryonic day (E15) were seeded on matrigel and PDL-coated 96 well plates (20,000 cells/well). In order to allow long culture and co-culture of neuron axons in 96 well plates without de-attachment, a method where the periphery of each well was scratched leaving sticky edges (and smooth surface) was developed. This scratch methodology enables long lasting culture of neuron axons on 96 well format. Once DRG neurons were seeded they were fed with Neurobasal medium (Gibco) supplemented with B27 (Gibco) and 50 ng/ml NGF (Alomone labs) (NB medium) for 2-3 weeks prior hES-OPC addition. […]
For testing maturation and myelination capacity of the hPSC derived oligodendrocytes, a co-culture system between rodent dorsal root ganglia (DRGs) and hPSCs derived oligodendrocytes was used. The number of MBP+ cells (MBP, a marker of oligodendrocytes' myelin) and Myelin formation (measured by co-localization area between MBP and neurofilament positive neuronal axons) was quantified.

[2] = test system: glial progenitor cells derived from human ES cells (Olig2 positive cells); test: hOPC differentiation assay, Olig2 positive cells (immunostaining, high content screening); type: cell-based
Protocol: In order to initiate differentiation 20,000 GPCs were seeded in each well of Matrigel coated plates of 96 wells, or on PolyD-Lysine/laminin (PDL/lam)-coated 96 well plates. Cells were grown in GM media for two to three days. Then GM was replaced by differentiation medium without growth factors, (DMEM/F12, 1% B27, 0.5% N2, Vitamin C (Sigma, 50 ug/ml). Differentiation medium was supplemented with the following tested compounds: […] All media were replaced every other day. The oligodendrocyte lineage cells were characterized by the expression of a transcription factor olig2. The rabbit polyclonal AB anti olig2 (Millipore cat AB9610) was added to PFA fixed cells. […] The fixed cells were washed three times in blocking solution, olig2 diluted 1/500, in blocking solution, was added for 1 hour. The fixed cells were washed with PBS 3 times and goat anti rabbit Alexa Fluor 568 1/500 in PBS was added for 45 minutes. The fixed cells were washed three times. ArrayScan VTI HCS reader system (Cellomis, Thermo-scientific) was used for scanning at least 20 fields for each tested well under 10× objective in both assays (differentiation and myelination). Cellomics Neural profiling bio-application was used for processing and analyzing the images. For differentiation assay, the following parameters were tested: number and percentage of O4+ cells, number of processes, processes length and number of branching points. For myelination assay, the same morphological parameters were tested and in addition: areas of myelinated axons in pixels (MBP&NF overlap area) and Number of myelinated regions (MBP&NF overlap count) were also analyzed. Modifications in the Neuro-profiling bio-application were conducted for this specific purpose. T-test analysis was used to compare between treatments. The 4-parameter Hill-Slope curve fittings were generated by GraphPad Prism software using least squares fitting method and EC50 values were calculated. […] The cells at passage five were cultured for three days with GM on 96 well plates and after fixation, cells were reacted with anti-olig2 Ab, and olig2 positive cells and nuclei were scanned in the Thermo Scientific™ ArrayScan™ XTI High Content Analysis (HCA) Reader and counted with the neural profiling program. On the other hand the cells surface antigens O4 and PDGFRa were detected on dissociated cells after fixation and reaction with O4 Ab conjugated to APC, anti PDGFRa PE, as well as A2B5 PE all obtained from BD. Flow cytometry was conducted in BD FACS Canto II. […] Time points used for analysis are 21, 28, 35 and 42 days of differentiation, for each time point 20 fields were analyzed. […] In this experiment, cells at passage 4 were pretreated in differentiation medium with Noggin for 14 days, and split before seeding on 96 well plates.

EC50 ([2]; 21 days, differentiation medium without noggin, with or without PDGF (20 ng/ml), read-out: EC50 (percentage of olig2 positive cells)): ~30 nM
Compound: c1ccc2c(-c3cnn4cc(-c5ccc(N6CCNCC6)cc5)cnc34)ccnc2c1 [LDN-193189]
MBP+ cells number / differentiation into MBP+ cells (summary statement) [1]: increased also the number of MBP+ cells | number of MBP+ cells (mature oligodendrocytes) ([1]; 14 days co-culture, 125 nM LDN-193189 added to MYL media with 50 ng/ml Noggin, vs Noggin alone): increased the number of MBP+ cells; also recorded: significant increase | total cell count ([1]; 14 days co-culture, Noggin+LDN-193189 vs Noggin alone): no difference was observed | Olig2+ cells number / differentiation (summary statement) [2]: increased the number of O4+ and Olig2+ cells; also recorded: stimulates the formation of olig2 positive cells | number / percentage of Olig2+ cells (hOPC commitment) ([2]; day 21, Noggin 50 ng/ml + PDGF 20 ng/ml, Dorsomorphin 2 μM, LDN-193189 125 nM): increased the number of Olig2+ | conversion of neural stem cells to Olig2 positive cells ([2]; days 21, 28, 35, 42, noggin 100 ng/ml, LDN-193189 62.5 nM and 125 nM): stimulate the conversion of neural stem cells to Olig2 positive cells
